Experimental data: patent publication US20260167632A1, “NICOTINAMIDE DERIVATIVES FOR USE IN TREATING DISORDERS ASSOCIATED WITH KCNK13 ACTIVITY” (Cerevance, Inc., priority 2022, published 2026)

Key:
[1] = target: T1, human KCNK13 (Homo sapiens, UniProt Q9HB14); assay: KCNK13 antagonist activity, thallium flux FLIPR assay in HEK 293 cells stably expressing human KCNK13; type: cell-based; conditions: HEK 293 cells stably expressing human KCNK13, Tl+ sensitive dye, compound 15 min before thallium sulfate, ten point curves; read-out: hKCNK13 IC50
T1 construct: expressed in transfected cells
T1 sequence (Q9HB14 1-408): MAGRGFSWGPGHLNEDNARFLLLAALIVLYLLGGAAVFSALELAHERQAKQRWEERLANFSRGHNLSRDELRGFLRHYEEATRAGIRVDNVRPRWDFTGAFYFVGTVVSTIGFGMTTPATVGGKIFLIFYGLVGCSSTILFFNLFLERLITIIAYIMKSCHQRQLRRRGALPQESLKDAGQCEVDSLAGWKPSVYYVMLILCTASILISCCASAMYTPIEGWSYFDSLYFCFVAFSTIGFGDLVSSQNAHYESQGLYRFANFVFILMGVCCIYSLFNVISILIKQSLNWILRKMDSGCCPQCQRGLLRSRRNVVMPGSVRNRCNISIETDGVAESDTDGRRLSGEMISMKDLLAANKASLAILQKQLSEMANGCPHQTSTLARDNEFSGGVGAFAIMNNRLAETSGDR
Summary of the method: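 HEK 293 cells stably expressing human KCNK13, loaded with Tl+-sensitive dye 1 h at room temperature, then exposed to compound for 15 min before thallium sulfate stimulus. Tl+ influx read by FLIPR fluorescence; IC50 from ten-point half-log curves starting at 100 µM, each point averaging two wells.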

[2] = test system: Mouse primary microglia IL-1β; assay: Inflammasome assay in primary mouse postnatal microglia using LPS/0 mM extracellular K+ (IL-1β release); type: cell-based; conditions: 100 ng/mL LPS 3.5 h, compound 30 min, K+ free buffer 2 h, IL-1β levels by MesoScale
Experimental: 3. Inflammasome Assay in Primary Mouse Postnatal Microglia Using LPS/0 mM Extracellular K^+
Newly shaken mouse microglia cells were added to a 96-well plate and left to adhere overnight. After this time, 100 ng/mL LPS was added to each well and incubated at 37° C. for 3.5 hours, at which point compound addition was undertaken and plates incubated at 37° C. for an additional 30 minutes. After this time, the medium in each well was removed and replaced with K^+ free buffer and the plates then incubated for an additional 2 hours at 37° C. Measurement of IL-1β levels in the sample wells was undertaken using MesoScale Discovery™ MESO QuickPlex SQ 120 and IL-1β antibodies from mouse IL-1β DuoSet ELISA kit (R&D System, DY401).

COc1ncc(F)cc1C(=O)N(C)C1CCc2ccccc21 (single isomer, unassigned) [Example 16, N-(2,3-dihydro-1H-inden-1-yl)-5-fluoro-2-methoxy-N-methylnicotinamide]
IC50 [1]: ≤ 0.5 µM | IC50 [2]: ≤ 0.6 µM

COc1ncc(Cl)cc1C(=O)N(C)Cc1cccc(F)c1 [Example 24, 5-chloro-N-(3-fluorobenzyl)-2-methoxy-N-methylnicotinamide]
IC50 [1]: ≤ 0.05 µM | IC50 [2]: ≤ 0.15 µM

COc1ncc(F)cc1C(=O)N(C)Cc1ccc(F)cc1F [Example 39, N-(2,4-difluorobenzyl)-5-fluoro-2-methoxy-N-methylnicotinamide]
IC50 [1]: ≤ 0.2 µM | IC50 [2]: ≤ 0.3 µM

COc1ncc(Cl)cc1C(=O)N(C)Cc1c(F)cccc1F [Example 117, 5-chloro-N-(2,6-difluorobenzyl)-2-methoxy-N-methylnicotinamide]
IC50 [1]: ≤ 0.2 µM

COc1ncc(Cl)cc1C(=O)N(C)Cc1c(Cl)cccc1Cl [Example 118, 5-chloro-N-(2,6-dichlorobenzyl)-2-methoxy-N-methylnicotinamide]
IC50 [1]: ≤ 0.2 µM

CN(C(=O)c1cc(Cl)cnc1OC(F)F)C1CS(=O)(=O)c2ccccc21 (stereo not shown) [Example 119, 5-chloro-2-(difluoromethoxy)-N-(1,1-dioxido-2,3-dihydrobenzo[b]thiophen-3-yl)-N-methylnicotinamide]
IC50 [1]: ≤ 0.5 µM

N#Cc1cc(F)ccc1S(=O)(=O)N1CCOc2ccc(F)cc2C1 [Example 120, 5-fluoro-2-((7-fluoro-2,3-dihydrobenzo[f][1,4]oxazepin-4(5H)-yl)sulfonyl)benzonitrile]
IC50 [1]: ≤ 0.2 µM
